Experimental data: article PMC12456999, “Sulfonyl Homoserine Lactones Are Tunable Probes to Inhibit the Quorum Sensing Receptor RhlR and Reduce Swarming Motility in Pseudomonas aeruginosa” (ACS Infectious Diseases, 2025)
Like-named read-outs stand apart in the source and are kept apart here. Marks after values point to notes of the source that are not given here.

What was measured:
RhlR [1] = target: T1, RhlR (Pseudomonas aeruginosa, UniProt P54292); test: E. coli (JLD271) RhlR reporter agonism assay (no BHL added); format: cell-based; settings: for Emax: read-out: Max Activation (RhlR), E. coli JLD271 RhlR reporter, no BHL added, high concentrations
T1 construct: expressed in transfected cells; host or cells: E. coli JLD271 (K-12 ΔlacX74 sdiA271::Cam) carrying pJN105-R2 (RhlR expression) and pSC11-rhlI (rhlI'-lacZ reporter)
T1 sequence (P54292 whole entry): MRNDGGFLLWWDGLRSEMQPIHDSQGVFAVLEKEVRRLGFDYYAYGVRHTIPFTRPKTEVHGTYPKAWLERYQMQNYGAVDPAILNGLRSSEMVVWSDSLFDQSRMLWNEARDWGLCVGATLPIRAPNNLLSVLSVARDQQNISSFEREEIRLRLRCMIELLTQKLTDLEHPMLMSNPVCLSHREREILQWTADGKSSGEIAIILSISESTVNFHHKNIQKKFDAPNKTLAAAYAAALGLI
Procedure: (§1) To start, the sulfonyl HLs were evaluated for their ability to antagonize RhlR using a previously described E. coli strain (JLD271) harboring a RhlR expression plasmid and a rhlI reporter plasmid. This E. coli reporter produces RhlR, and protein activity in the presence of an added small molecule can be measured via the production of β-galactosidase as quantified via luminescence (see Methods). Compounds were screened in competition against RhlR’s native ligand, BHL (at its EC50 value in this strain, 10 μM), over a range of concentrations to generate antagonism dose–response curves (see Supporting Information) and calculate IC50 values (listed in Table ). A small set of compounds was also screened for RhlR agonism in the E. coli reporter; the agonism assay format was identical to the antagonism assay, except no BHL was added.
(§2) RhlR activity in E. coli strain JLD271 (ΔsdiA) was measured via a β-galactosidase reporter (rhI-lacZ) using the Promega Beta-Glo Assay System as previously described. RhlR activity in P. aeruginosa PA14 (ΔrhlIΔlasI) was measured via a GFP reporter (rhlA-gfp). […] See Supporting Information for both reporter protocols.
(§3) Supporting Information — Aguirre-Figueroa et al.
(§4) E. coli and P. aeruginosa RhlR reporter assay protocols.
E. coli RhlR reporter assay. RhlR activity in E. coli strain JLD271 (ΔsdiA) was measured via a β-galactosidase reporter using the Promega Beta-Glo® Assay System as previously described.10 A schematic of the reporter plasmids and assay protocol is shown in Scheme S1. Briefly, a single colony of E. coli JLD271 harboring the RhlR expression plasmid pJN105-R and the rhlI-lacZ transcriptional fusion reporter pSC11-R (Table S1) was grown in LB medium with 100 μg/mL ampicillin and 10 μg/mL gentamicin overnight (~16 h). The culture was diluted 1:10 in fresh LB medium and grown to an OD600 = 0.25 (0.23–0.28) (~0.5 h). Arabinose was added to a final concentration of 4 mg/mL to induce the expression of pJN105-R. Aliquots (2 μL) of compound DMSO stock solution or serial dilution were added to the inner wells (i.e., non-periphery rows) of a 96-well microtiter plate. To six inner wells, DMSO alone (vehicle) was added as a negative control. For agonism assays, BHL was added to six inner wells as a positive control (to achieve 1 mM). For antagonism assays, BHL was added to six inner wells as a positive control and to all of the other sample wells except for the vehicle control wells (to achieve 10 μM ). […]
After the incubation period, the OD600 of each well was measured using a plate reader. […] After incubation, luminescence of each well was measured using a plate reader. To determine levels of RhlR activity, raw luminescence was divided by OD600 to correct for growth variation and then normalized to the negative (0%) and positive (100%) control wells. […]

RhlR [2] = target: T1, RhlR; test: P. aeruginosa RhlR reporter agonism assay; format: cell-based
Procedure: as §2, §3
P. aeruginosa RhlR reporter assay. RhlR activity in P. aeruginosa PA14 ΔrhlIΔlasI was measured via a GFP reporter. Briefly, a single colony of P. aeruginosa strain PA14 ΔrhlIΔlasI harboring the transcriptional fusion reporter pPROBE-GT rhlA-GFP (Table S1) was grown in LB medium with 40 μg/mL gentamicin overnight (~20 h). The culture was diluted 1:100 in fresh LB medium, without antibiotic, to an OD600 = 0.25 (0.22–0.30) (~1 h). Aliquots (2 μL) of compound DMSO stock solution or serial dilution were added to the inner wells (i.e., non-periphery rows) of a black, clear bottom 96-well plate. To 12 inner wells, DMSO alone (vehicle) was added to serve as controls (negative and positive). For the six negative control wells (no BHL), 198 μL of bacterial culture plus OdDHL (to achieve 10 μM) were added. […] After incubation, the OD600 and GFP production (excitation at 500 nm, emission at 540 nm) were read for each well using a plate reader. […]

RhlR [3] = target: T1, RhlR; settings: P. aeruginosa RhlR reporter systems; reference number not given; cited from earlier work
RhlR [4] = target: T1, RhlR; test: E. coli (JLD271) RhlR reporter antagonism assay, in competition with BHL; format: cell-based; settings: for activity profile in RhlR: E. coli RhlR reporter dose-response curves; for max. RhlR inhibition (%): E. coli RhlR reporter, BHL at 10 μM set to 0%, media control set to 100%; for IC50: IC50, E. coli JLD271 RhlR reporter, against 10 μM BHL
Procedure: as §1, §2, §3, §4
E. coli RhlR reporter assay. RhlR activity in E. coli strain JLD271 (ΔsdiA) was measured via a β-galactosidase reporter using the Promega Beta-Glo® Assay System as previously described.10 A schematic of the reporter plasmids and assay protocol is shown in Scheme S1. Briefly, a single colony of E. coli JLD271 harboring the RhlR expression plasmid pJN105-R and the rhlI-lacZ transcriptional fusion reporter pSC11-R (Table S1) was grown in LB medium with 100 μg/mL ampicillin and 10 μg/mL gentamicin overnight (~16 h). The culture was diluted 1:10 in fresh LB medium and grown to an OD600 = 0.25 (0.23–0.28) (~0.5 h). Arabinose was added to a final concentration of 4 mg/mL to induce the expression of pJN105-R. Aliquots (2 μL) of compound DMSO stock solution or serial dilution were added to the inner wells (i.e., non-periphery rows) of a 96-well microtiter plate. To six inner wells, DMSO alone (vehicle) was added as a negative control. For agonism assays, BHL was added to six inner wells as a positive control (to achieve 1 mM). For antagonism assays, BHL was added to six inner wells as a positive control and to all of the other sample wells except for the vehicle control wells (to achieve 10 μM ). Subculture (198 μL) was then dispensed into each inner well. To the outer (periphery) wells, 200 μL of water were added to maintain humidity during incubation. Plates were then incubated for 4 h (shaking) at 37 °C.
Scheme S1. Schematic of E. coli reporter plasmids and assay. (A) Representation of plasmids used in the heterologous reporter system. (B) General reporter assay workflow. BioRender used in […]
After the incubation period, the OD600 of each well was measured using a plate reader. Cell dilution plates were prepared by transferring 10 μL from the incubated culture plate wells to a fresh 96-well plate and adding 90 μL of 18 MΩ water to each well. Next, 10 μL aliquots of diluted Beta-Glo® reagent (1:2 with 18 MΩ water) were added to each well of a white 384-well microtiter plate, followed by 10 μL of culture from each well of the dilution plate. The 384-well plate was incubated (without shaking; i.e., static) for 30 min at 30 °C. After incubation, luminescence of each well was measured using a plate reader. To determine levels of RhlR activity, raw luminescence was divided by OD600 to correct for growth variation and then normalized to the negative (0%) and positive (100%) control wells.
Dose-response reporter assay data for compounds in the E. coli RhlR reporter.
Dose-response curves for RhlR antagonism by compounds against 10 μM BHL using the E. coli JLD271 RhlR reporter are provided below. Compound names are indicated on the x-axis of each plot.
All assays performed in triplicate as at least three separate biological replicates. […]

bacterial growth = test: Effect on bacterial growth (OD600 over time); format: cell-based; settings: at >2 mM concentrations
Procedure: All new compounds were fully characterized for purity and identity (see Supporting Information). […] The remaining compounds had no effect on growth over the concentration range tested. All compounds were tested in bacteriological assays in triplicate and in at least three separate trials using unique cultures. IC50 and EC50 values in reporter assays were calculated using GraphPad Prism software (version 9.0) with a variable slope sigmoidal curve fit.

other LuxR homologues = tested on: other LuxR homologues; parameters: method as in Kim et al.; settings: ref Kim et al.; cited from earlier work

SMILES | max. RhlR inhibition (%) (RhlR [4]) | IC50 (RhlR [4]) [µM] | other results
CCCC(=O)N[C@H]1CCOC1=O [BHL, N-butanoyl L-homoserine lactone, reference compound] | – | – | EC50 (RhlR [1]): 10 µM; IC50 (RhlR [1]): 8.73 µM; EC50 (RhlR [2]): 4.47 µM; EC50 (RhlR [3]): 5 to 10 µM
O=C1OCC[C@@H]1NS(=O)(=O)Cc1ccc(C(F)(F)F)cc1 [Compound 15, 4-CF3 BnSHL] | 35 ^f % | – | activity profile in RhlR (RhlR [4]): partial agonist; Emax (RhlR [1]): 38%
O=C1OCC[C@@H]1NS(=O)(=O)c1ccc(Cl)cc1 [Compound 26] | 96% | 452 | effect on bacterial growth (bacterial growth): modest effect on bacterial growth
O=C1OCC[C@@H]1NS(=O)(=O)c1ccccc1Cl [Compound 27, 2-chloro BSHL] | 93% | 545 | effect on bacterial growth (bacterial growth): modest effect on bacterial growth
O=C1OCC[C@@H]1NS(=O)(=O)Cc1cccc(Cl)c1 [Compound 33, 3-Cl BnSHL] | 99% | 125 | potency gain (RhlR [4]; 33 vs 16, 43 vs 24, 86 vs 45, E. coli RhlR reporter IC50): ≤ 40 fold; effect on bacterial growth (bacterial growth): modest effect on bacterial growth
O=C1OCC[C@@H]1NS(=O)(=O)c1ccc(Br)cc1 [Compound 35, 4-bromo BSHL] | 99% | 166 | effect on bacterial growth (bacterial growth): modest effect on bacterial growth
O=C1OCC[C@@H]1NS(=O)(=O)c1cc(Cl)cc(Cl)c1 [Compound 50, 3,5-Cl-BSHL] | – | – | activity profile in RhlR (RhlR [4]): partial agonist behavior; Emax (RhlR [1]): 30%
O=C1OCC[C@@H]1NS(=O)(=O)c1ccccc1 [Compound 57] | 93% | 715 | antagonism of other LuxR homologues (other LuxR homologues): ~50%
O=C1OCC[C@@H]1NS(=O)(=O)c1ccc(F)c(Cl)c1 [Compound 64, 3-Cl, 4-F BSHL] | 90% | 31.3 | fold higher potency relative to 3,4-di-Cl BSHL (43) (RhlR [4]; E. coli RhlR reporter IC50): 2 fold; effect on bacterial growth (bacterial growth): modest effect on bacterial growth
O=C1OCC[C@@H]1NS(=O)(=O)c1cc(Cl)c(F)c(Cl)c1 [Compound 87, 3,5-Cl-4F BSHL] | 85% | 68 | fold higher potency relative to 3,4-di-Cl BSHL (43) (RhlR [4]; E. coli RhlR reporter IC50): no change in potency
O=C1OCC[C@@H]1NS(=O)(=O)c1cccc(F)c1 [Compound 88, 3-fluoro BSHL] | 92% | 120 | –
O=C1OCC[C@@H]1NS(=O)(=O)c1c(Cl)cccc1Cl [Compound 89, 2,6-di-Cl-BSHL] | 86% | > 1000 | –
O=C1OCC[C@@H]1NS(=O)(=O)c1cc(Cl)ccc1Cl [Compound 90, 2,5-di-Cl BSHL] | 92% | 1100 | –
O=C1OCC[C@@H]1NS(=O)(=O)c1ccc(F)cc1 [Compound 91] | 97% | 301 | –
O=C1OCC[C@@H]1NS(=O)(=O)c1ccccc1F [Compound 92, 2-fluoro-BSHL] | 91% | 863 | –
Cc1cccc(S(=O)(=O)N[C@H]2CCOC2=O)c1 [Compound 93] | 95% | 127 | –
Cc1ccc(CC(=O)N[C@H]2CCOC2=O)cc1 [Compound C19, 4-Me PHL, reference compound] | 89% | 5.46 | –
O=C(Cc1ccc(C(F)(F)F)cc1)N[C@H]1CCOC1=O [Compound C20, 4-CF3 PHL, reference compound] | 93% | 10.3 | –
